Literature values, collected in patent publication US9006272B2, “Pharmaceutical compositions and method for treating inflammation in cattle and other animals” (Intervet Inc., priority 2006, dated 2015).

Conditions: background statement

Cc1c(Nc2ncccc2C(=O)O)cccc1C(F)(F)F [flunixin meglumine]
lipid solubility: very poor
